Measurements: patent US20090111847A1, “PREPARATION METHOD AND USE OF COMPOUNDS HAVING HIGH INSECTICIDAL ACTIVITIES” (priority 2006, published 2009)

Tests used:
Aphis craccivora = assay: Insecticidal activity against Aphis craccivora by immersing (mortality after 24 hours); type: in vivo; details: for Mortality (%) (500 ppm) Aphis craccivora / Aphis craccivora LC50 (ppm) / Aphis craccivora Mortality (%) (100 ppm): in vivo; for mortality at 500 ppm: Aphis craccivora, 24 h, read-out: Mortality (%) (500 ppm) Aphis craccivora
Procedure: Aphis, which belongs to Homoptera and has a piercing-sucking mouthpart, is a common insect for agricultural plant. Aphis craccivora was tested by the way of immersing.
Test method: exactly weighed various samples were independently added to N,N-dimethylformamide to form a 10 g/L stock solution. The mixture was diluted with 0.2 mL/L aqueous Triton X-100 solution to a concentration of 500 ug/mL. After stably sucking on bean sprout, the adult aphis without wings together with bean sprout was dipped into the dilution of 500 ug/mL, 100 ug/mL, 50 ug/mL, 25 ug/mL, 12.5 ug/mL, 6.25 ug/mL (LD50 was calculated), taken out after 5 seconds, and the excess dilution was sucked out with bibulous paper and the adult aphis without wings was incubated in clean vessel at a constant temperature of 23° C. Each concentration was repeated for 3 times and the control group contained 0.2 mL/L aqueous Triton X-100 solution. The number of killed aphis was counted after 24 hours to calculate the mortality.

Nilaparvata lugens = assay: Insecticidal activity against Nilaparvata lugens by spraying (mortality after 24 hours); type: in vivo; details: for Mortality (%) (500 ppm) Nilaparvata lugens: spraying 2 ml, counted after 24 hours; for mortality at 500 ppm: Nilaparvata lugens, 24 h, read-out: Mortality (%) (500 ppm) Nilaparvata lugens
Procedure: Plant hopper, which belongs to Homoptera and has a piercing-sucking mouthpart, is a common insect for agricultural plant. Nilaparvata lugens was tested by the way of spraying.
Test method: the compound to be tested was exactly formulated into a solution having a certain concentration and clean water was used as a blank control. Each process was repeated for 3 tumblers (3 times). 2 ml of solution was sprayed uniformly to each tumbler by a mini manual sprayer. 10 Nilaparvata lugens were introduced to every sink 6 hours before spraying. Three series of experiments were conducted. The number of killed Nilaparvata lugens was counted after 24 hours to calculate the mortality.

Row | Compound | Mortality (%) (500 ppm) Aphis craccivora (Aphis craccivora) | Mortality (%) (500 ppm) Nilaparvata lugens (Nilaparvata lugens) | Aphis craccivora LC50 (ppm) (Aphis craccivora) | Aphis craccivora Mortality (%) (100 ppm) (Aphis craccivora) | also measured
1 | CCC1C([N+](=O)[O-])=C2N(Cc3ccc(Cl)nc3)CCN2C(O)C1C (stereo not drawn) [Compound 35] | 100 | 88 |  |  | 
2 | CCC1CC([N+](=O)[O-])=C2N(Cc3ccc(Cl)nc3)CCN2C1OC (stereo not drawn) [k] |  |  | 83.0 | 92 | 
3 | CC1CC([N+](=O)[O-])=C2N(Cc3cnc(Cl)s3)CCN2C1O (stereo not drawn) [Compound 21] | 90 | 100 |  |  | 
4 | CCOC1CC(O)N2CCN(Cc3ccc(Cl)nc3)C2=C1[N+](=O)[O-] (stereo not drawn) [Compound 45] | 100 | 89 |  |  | 
5 | C=CCOC1CC(C)C([N+](=O)[O-])=C2N(Cc3ccc(Cl)nc3)CCN21 (stereo not drawn) [Compound 9] | 98 | 100 |  |  | 
6 | CCC1CC(OC(C)C)N2CCN(Cc3ccc(Cl)nc3)C2=C1[N+](=O)[O-] (stereo not drawn) [Compound 23] | 65 | 95 |  |  | 
7 | CCOC1CC(C)C([N+](=O)[O-])=C2N(Cc3ccc(Cl)nc3)CCN21 (stereo not drawn) [Compound 3, 1-((6-chloropyridin-3-yl)methyl)-5-ethoxy-7-methyl-8-nitro-1,2,3,5,6,7-hexahydroimidazo[1,2-a]pyridine] |  |  |  |  | mortality at 500 ppm (Aphis craccivora): 100%; mortality at 500 ppm (Nilaparvata lugens): 100%
8 | CCC1C([N+](=O)[O-])=C2N(Cc3ccc(Cl)nc3)CCN2C(O)C1C (stereo not drawn) [m] |  |  | 75.9 | 87 | 
9 | COC1CC([N+](=O)[O-])=C2N(Cc3cnc(Cl)s3)CCN2C1O (stereo not drawn) [Compound 48] | 85 | 90 |  |  | 
10 | CC1C([N+](=O)[O-])=C2N(Cc3ccc(Cl)nc3)CCN2C(O)C1C (stereo not drawn) [Compound 30, 1-((6-chloropyridin-3-yl)methyl)-6,7-dimethyl-8-nitro-1,2,3,5,6,7-hexahydroimidazo[1,2-a]pyridin-5-ol] |  |  |  |  | mortality at 500 ppm (Aphis craccivora): 100%; mortality at 500 ppm (Nilaparvata lugens): 100%
11 | CCC1CC([N+](=O)[O-])=C2N(Cc3ccc(Cl)nc3)CCN2C1O (stereo not drawn) [j] |  |  | 57.3 | 93.6 | 
12 | CC1CC(OCC(F)(F)F)N2CCN(Cc3ccc(Cl)nc3)C2=C1[N+](=O)[O-] (stereo not drawn) [Compound 4] | 100 | 100 |  |  | 
13 | CC1C([N+](=O)[O-])=C2N(Cc3ccc(Cl)nc3)CCN2C(O)C1C (stereo not drawn) [l] |  |  | 86.4 | 66.7 | 
14 | CCCC1CC([N+](=O)[O-])=C2N(Cc3ccc(Cl)nc3)CCN2C1OCC (stereo not drawn) [Compound 29] | 100 | 97 |  |  | 
15 | CCC1CC([N+](=O)[O-])=C2N(Cc3ccc(Cl)nc3)CCN2C1OC (stereo not drawn) [Compound 27] | 92 | 80 |  |  | 
16 | CCOC1CC(C)C([N+](=O)[O-])=C2N(Cc3ccc(Cl)nc3)CCN21 (stereo not drawn) [c] |  |  | 65.4 | 67 | 
17 | COC1CC(c2ccccc2)C([N+](=O)[O-])=C2N(Cc3ccc(Cl)nc3)CCN21 (stereo not drawn) [Compound 39] | 45 | 0 |  |  | 
18 | C#CCOC1CC(C)C([N+](=O)[O-])=C2N(Cc3ccc(Cl)nc3)CCN21 (stereo not drawn) [Compound 10] | 43 | 67 |  |  | 
19 | CCC1C(C)C([N+](=O)[O-])=C2N(Cc3ccc(Cl)nc3)CCN2C1O (stereo not drawn) [Compound 33] | 92 | 78 |  |  | 
20 | CCOC1C(C)CC([N+](=O)[O-])=C2N(Cc3ccc(Cl)nc3)CCN21 (stereo not drawn) [Compound 19] | 100 | 100 |  |  | 

Row | Compound | Mortality (%) (500 ppm) Aphis craccivora (Aphis craccivora) | Mortality (%) (500 ppm) Nilaparvata lugens (Nilaparvata lugens) | Aphis craccivora LC50 (ppm) (Aphis craccivora) | Aphis craccivora Mortality (%) (100 ppm) (Aphis craccivora) | also measured
21 | CC(C)OC1CC(C)C([N+](=O)[O-])=C2N(Cc3ccc(Cl)nc3)CCN21 (stereo not drawn) [e] |  |  | 20.5 | 100 | 
22 | CCOC1CC([N+](=O)[O-])=C2N(Cc3ccc(Cl)nc3)CCN2C1O (stereo not drawn) [q] |  |  | 70.9 | 85 | 
23 | CCCC1CC(O)N2CCN(Cc3ccc(Cl)nc3)C2=C1[N+](=O)[O-] (stereo not drawn) [i] |  |  | 75.2 | 77 | 
24 | COC1C([N+](=O)[O-])=C2N(Cc3ccc(Cl)nc3)CCN2C(O)C1C (stereo not drawn) [Compound 43] | 100 | 97 |  |  | 
25 | COC1CC(O)N2CCN(Cc3ccc(Cl)nc3)C2=C1[N+](=O)[O-] (stereo not drawn) [Compound 42, 1-((6-chloropyridin-3-yl)methyl)-7-methoxy-8-nitro-1,2,3,5,6,7-hexahydroimidazo[1,2-a]pyridin-5-ol] |  |  |  |  | mortality at 500 ppm (Aphis craccivora): 100%; mortality at 500 ppm (Nilaparvata lugens): 97%
26 | CCCCCOC1CC(C)C([N+](=O)[O-])=C2N(Cc3ccc(Cl)nc3)CCN21 (stereo not drawn) [Compound 8] | 67 | 80 |  |  | 
27 | CCCCC1CC(O)N2CCN(Cc3ccc(Cl)nc3)C2=C1[N+](=O)[O-] (stereo not drawn) [Compound 41] | 72 | 50 |  |  | 
28 | CC(=O)OC1CC(C)C([N+](=O)[O-])=C2N(Cc3ccc(Cl)nc3)CCN21 (stereo not drawn) [Compound 11, 1-((6-chloropyridin-3-yl)methyl)-7-methyl-8-nitro-1,2,3,5,6,7-hexahydroimidazo[1,2-a]pyridin-5-yl acetate] |  |  |  |  | mortality at 500 ppm (Aphis craccivora): 93%; mortality at 500 ppm (Nilaparvata lugens): 100%
29 | CCC1CC(O)N2CCN(Cc3ccc(Cl)nc3)C2=C1[N+](=O)[O-] (stereo not drawn) [Compound 22] | 93 | 98 |  |  | 
30 | COC1C(C)C([N+](=O)[O-])=C2N(Cc3ccc(Cl)nc3)CCN2C1O (stereo not drawn) [Compound 49] | 100 | 100 |  |  | 
31 | CC1CC(O)N2CCN(Cc3cnc(Cl)s3)C2=C1[N+](=O)[O-] (stereo not drawn) [Compound 12, 1-((2-chlorothiazol-5-yl)methyl)-7-methyl-8-nitro-1,2,3,5,6,7-hexahydroimidazo[1,2-a]pyridin-5-ol] |  |  |  |  | mortality at 500 ppm (Aphis craccivora): 100%; mortality at 500 ppm (Nilaparvata lugens): 100%
32 | CC1CC(O)N2CCN(Cc3ccc(Cl)nc3)C2=C1[N+](=O)[O-] (stereo not drawn) [a] |  |  | 31.5 | 95.3 | 
33 | CCCOC1CC(C)C([N+](=O)[O-])=C2N(Cc3ccc(Cl)nc3)CCN21 (stereo not drawn) [d] |  |  | 33.6 | 75.4 | 
34 | CC1CC(O)N2CCN(Cc3cnc(Cl)s3)C2=C1[N+](=O)[O-] (stereo not drawn) [f] |  |  | 68 | 87 | 
35 | CCOC1CC(O)N2CCN(Cc3ccc(Cl)nc3)C2=C1[N+](=O)[O-] (stereo not drawn) [o] |  |  | 66.4 | 82 | 
36 | CC1CC([N+](=O)[O-])=C2N(Cc3ccc(Cl)nc3)CCN2C1O (stereo not drawn) [g] |  |  | 36.3 | 92 | 
37 | COC1CC([N+](=O)[O-])=C2N(Cc3ccc(Cl)nc3)CCN2C1O (stereo not drawn) [p] |  |  | 47.6 | 93 | 
38 | COC1CC(C)C([N+](=O)[O-])=C2N(Cc3ccc(Cl)nc3)CCN21 (stereo not drawn) [b] |  |  | 50.8 | 84 | 
39 | COC1CC(O)N2CCN(Cc3ccc(Cl)nc3)C2=C1[N+](=O)[O-] (stereo not drawn) [n] |  |  | 40.5 | 96 | 
